{
  "source": "patent US20190211317A1",
  "about": "“PEPTIDES AND NANOPARTICLES FOR INTRACELLULAR DELIVERY OF GENOME-EDITING MOLECULES” (Aadigen, LLC, priority 2016, published 2019)",
  "key": {"[1]": {"system": "endogenous hPD1 gene in JURKAT and K562 cells", "test": "hPD1 gene editing in T cell lines (T7E1 assay)", "type": "cell-based, human", "method": "CAS9 protein was preloaded with purified sgRNA at a molar ratio of 1:1 and incubated for 10 min prior to forming complexes with peptides.\n5×10^6 cells were washed twice with DPBS by centrifuging at 800 rpm for 5 minutes and resuspended in 100 ^l transfection buffer, and then transferred into the electroporation cuvette. An optimized program selected for both high transfection and high efficiency on T cells was used. After electroporation, cells were resuspended in 500 ^l pre-warmed AIM-V medium containing 10% FBS and incubated at 37° C. in 5% CO2. The transfection efficiency was evaluated after 48 hr by flow cytometry or T7E1 assay.\nRNAiMAX delivery method was used as positive control. Cells were either resuspended in or overlaid with 100 μl of preformed complexes, incubated for 3-5 min, and then 300 μl of DMEM was added. […] The indel frequency in the hPD1 gene was quantified using the T7E1 assay."}, "[2]": {"system": "hPD1 gene in human T cells", "test": "hPD1 gene editing in primary human T cells (T7E1 assay)", "type": "cell-based", "experimental": "T cells were isolated from PBMCs (2 different donors) using anti-CD3/anti-CD28 antibodies bound to paramagnetic beads (Dynabeads ClinExVivo CD3/CD28, Invitrogen) at a ratio of 3:1 (beads:cells). The cells and beads were co-incubated for 2 hours at room temperature and CD3′ cell enrichment was performed using Dynal ClinExVIVO MPC magnet (Thermo Fisher). The anti-CD3/anti-CD28 paramagnetic beads were removed, washed and concentrated. Cells in the CD3′ fraction were resuspended in activation media at a concentration of 1×10^6 cells/ml with AIM-V medium (Thermo Fishers) supplemented with 10% fetal calf serum, 300 IU/ml IL2 and 50 ng/ml OKT3 (MuromonAB-CD3) for two days.\nCells were transfected by electroporation with CD-19 plasmid or gRNA/CAS9 (5 μg/10 μg) using a Nucleofector 2b (Lonza, Germany) with the Amaxa Human T cells Nucleofector Kit, VPA-1002 (Lonza, Germany). 5×10^6 cells were washed twice with DPBS by centrifuging at 800 rpm for 5 minutes and resuspended in 100 ^l transfection buffer, and then transferred into the electroporation cuvette. An optimized program selected for both high transfection and high efficiency on T cells was used. After electroporation, cells were resuspended in 500 ^l pre-warmed AIM-V medium containing 10% FBS and incubated at 37° C. in 5% CO2. The transfection efficiency was evaluated after 48 hr by flow cytometry or T7E1 assay.\nAs control, CAS9 loaded with gRNA targeting GFP was used.\nCells were returned to the incubator for 72 hours. CAS9-induced double-strand break followed by repair through non-homologous end joining (NHEJ) was analyzed by either the T7E1 assay or using the Genome Cleavage Detection kit (GCD Thermo Fisher) and quantified using Fragment Analyzer System. The indel frequency in the target gene was quantified using the T7E1 assay. The cultures were expanded and analyzed for viability and PD1 levels every 10 days. T cell expansion medium contained AIM V medium, supplemented with 5% heat-inactivated human AB Serum, 1% Gluta-Max, and 300 IU/mL IL-2."}, "[3]": {"system": "hPD1 gene in human T cells", "test": "Simultaneous delivery of CAR plasmid and CAS9/gRNA: hPD1 editing (T7E1)", "type": "cell-based", "settings": "for mean indel frequency: two donors", "experimental": "Cells were incubated for 5 min, then 300 μl of serum free RPMI-1640 medium was added. After 30 min, 1.2 mL of full medium was added and serum level was adjusted to 10%. As control, CAS9 loaded with gRNA targeting GFP was used. For comparison with electroporation methods, cells were transfected with the anti-CD-19 CAR plasmid (5 μg) and gRNA/CAS9 (5 μg/10 μg) using Nucleofector 2b (Lonza, Germany) with the Amaxa Human T cells Nucleofector Kit, VPA-1002 (Lonza, Germany).\nOn day 5, the level of transduced and untransduced cells was analyzed, and cells were transferred to fresh T cell expansion medium. The cultures were analyzed for viability and anti-CD19 CAR expression by flow cytometry. The expression of the anti-CD19 CAR in the T cells was evaluated by flow cytometry using a Protein L assay. […] 7-AAD (Sigma) was used to determine viability. CAS9-induced double-strand break followed by repair through NHEJ system was analyzed by either the T7E1 assay or using the Genome Cleavage Detection kit (GCD Thermo Fisher) and quantified using Fragment Analyzer System. The indel frequency in the target gene was quantified using the T7E1 assay. The cultures were expanded and analyzed for viability, anti-CD19 expression and PD I level every 10 days. T cell expansion medium contained AIM V medium, supplemented with 5% heat-inactivated human AB Serum, 1% Gluta-Max, and 300 IU/mL IL-2."}, "JURKAT and K562 cells": {"system": "JURKAT and K562 cells", "test": "Toxicity of CPP/CAS9/gRNA complexes in T cell lines (MTT assay)", "type": "cell-based, human", "settings": "up to 100 nM, 24 h", "method": "A total of 30,000 JURKAT or K562 cells seeded in 24-well plates the day prior to transfection were incubated with increasing concentrations of CPP/CAS9/gRNA complexed at 20:1 molar ratio (CPP to CAS9/gRNA) ranging from 1 nM to 200 nM for 30 min prior to addition of medium to reach a final 10% concentration of FCS. Cytotoxic response was measured 24 hours later by colorimetric MTT assay (Sigma, Germany). For MTT assay, cell culture medium was removed and replaced with PBS containing 2.5 mg/ml of MTT for 4 hours. Results correspond to the average of 3 independent experiments."}, "[4]": {"system": "HPRT gene in mouse muscle myoblast cells (C2C12)", "test": "HPRT gene editing in C2C12 myoblasts (T7E1 assay)", "type": "cell-based", "method": "(§1) […] Delivery by RNAiMAX was included as a positive control.\n(§2) CAS9-induced NHEJ was analyzed 72 hours after transfection by PCR (FIG. 26) and T7E1 assay (FIG. 27). The deletion (indel) frequencies in the HPRT gene were quantified using a T7E1 assay by quantifying the amount of uncut vs cut DNA using a Fragment Analyzer System. Data for on-target mutations induced by RGEN/gRNA are reported as an average of 3 separate experiments\n(§3) The cell line was maintained in 5% CO2 at 37° C. and cell viability was assessed by the Trypan Blue exclusion test. To induce myogenic differentiation, at about 80% cell confluence the medium containing 10% fetal calf serum was substituted with medium containing 1% fetal calf serum. The cells were transfected at the undifferentiated stage or at day 7 after differentiation."}, "[5]": {"system": "E-Catenin gene in mouse muscle myoblast cells (C2C12)", "test": "ü-Catenin gene disruption in C2C12 myoblasts (PCR gel)", "type": "cell-based", "settings": "undifferentiated and differentiated C2C12", "method": "Cells were transfected with CAS9/gRNA (2.5 μM/5 μM) complexes associated with CPP (+) or not (−) at a molar ratio of 20:1 (peptide to complex) and compared to delivery by RNAiMAX for E-Catenin expression. ü-actin expression was included as a loading control.\nas §1, §2, §3"}, "[6]": {"system": "U2OS, HEPG2, K562 cells and primary human fibroblasts", "test": "CAS9 protein expression after CPP delivery of CAS9 mRNA (ELISA)", "type": "cell-based", "settings": "day 3; cell types not specified", "experimental": "CPP/CAS9 mRNA complexes were formed by mixing the CAS9 mRNA (0.5 μg) with CPP at a 20:1 molar ratio of CPP:CAS9 mRNA and incubating for 30 min at 37° C. prior to cell transfection. Cells were transfected according to optimized protocols for either adherent or suspension cell lines.\nHuman primary fibroblasts were freshly obtained and grown in flasks pre-coated with a gelatin-based coating solution and incubated in Culture Complete Growth Medium for 3 days before expansion and treatment. U2OS cells were cultured in Dulbecco's Modified Eagle's Medium (DMEM), supplemented with 2 mM glutamine, 1% antibiotics (streptomycin 10,000 μg/mL, penicillin, 10,000 IU/mL) and 10% (w/v) foetal calf serum (FCS), at 37° C. in a humidified atmosphere containing 5% CO2. 35 mm dishes seeded with 150,000 cells the day prior to transfection were grown to 50-60% confluence and set up to be at about 70% confluences at the time of transfection. Before transfection, cells were washed with DMEM (2×) followed by PBS (1×). Cells were then overlaid with 0.2 ml of complex solution (16 μl CPP/Cargo complex in water+184 μl OPTiMEM without antibiotics), mixed gently, and incubated for 10 min at 37° C. 0.8 mL of fresh OPTiMEM or DMEM was then added and cells were incubated for 20 min at 37° C. 2 mL of complete OPTiMEM (high glucose) or DMEM containing 11.4% FCS was then added in order to reach a final FCS concentration of 10%, without removing the overlay of CPP/Cargo complexes. Cells were returned to the incubator (37° C., 5% CO2) and assayed at 72 hours post transfection.\nK562 and HEpG2 cells were set up to be at about 70% confluence at the time of transfection. The cells were maintained in high glucose DMEM media with 10% serum. Before transfection, cells were harvested by centrifugation, then washed with DMEM (2×) followed by PBS (1×). Cells were then resuspended in 0.2 ml of complex solution (16 μl CPP/Cargo complex in water+184 μl OPTiMEM without antibiotics), mixed gently, and incubated for 10 min at 37° C. 0.8 mL of fresh OPTiMEM was then added and cells were incubated for 20 min at 37° C. 2 mL of complete OPTiMEM (high glucose) containing 11.4% FCS was then added in order to reach a final FCS concentration of 10%, without removing the overlay of CPP/Cargo complexes. Cells were returned to the incubator (37° C., 5% CO2) and assayed at 72 hours post transfection.\nRNAiMAX lipid-based delivery (Invitrogen Thermo Fisher France) was used as a control and transfections were performed following the manufacturer's instructions. CAS9 expression level was analyzed at multiple time points over a period of 10 days as determined by ELISA on protein extracts using antibodies against CRISPR/Cas9 obtained from Diagenode (Diagenode cat. No. C15200223) and ABCAM (clone 7A9-ab191468)."}, "[7]": {"system": "U2OS and HEPG2 cell lines and primary human fibroblasts", "test": "CAS9 protein expression after CPP delivery of CAS9-expressing plasmid (ELISA)", "type": "cell-based", "settings": "U2OS, HEPG2, primary human fibroblasts; day 6; plasmid 0.5 μg", "experimental": "CPP/plasmid complexes were prepared by mixing 0.5 μg of a CAS9-expressing plasmid (Addgene MLM3639-Plasmid #42252) with CPP at a 20:1 molar ratio of CPP:cargo and incubating for 30 min at 37° C. prior to cell transfection. Cells were transfected according to the protocols for adherent and suspension cells described in Example 13a. Lipofectamine 2000 was used as lipid-based delivery control. CAS9 protein expression level was analyzed at multiple time points over a period of 10 days as determined by ELISA on protein extracts using antibodies against CRISPR/Cas9 obtained from Diagenode (Diagenode cat. No. C15200223) and ABCAM (clone 7A9-ab191468)."}, "primary human T cells": {"system": "primary human T cells", "test": "CAS9 protein expression in primary human T cells after CAS9 mRNA or plasmid delivery (ELISA)", "type": "cell-based", "settings": "day 3", "experimental": "T cells were isolated from PBMCs using anti-CD3/anti-CD28 antibodies bound to paramagnetic beads (Dynabeads ClinExVivo CD3/CD28, Invitrogen) at a ratio of 3:1 (beads:cells). The cells and beads were co-incubated for 2 hours at room temperature and CD3^+ cell enrichment was performed using Dynal ClinExVIVO MPC magnet (Thermo Fisher). The anti-CD3/anti-CD28 paramagnetic beads were removed, washed and concentrated. Cells in the CD3^+ fraction were resuspended in activation media at a concentration of 1×10^6 cells/ml with AIM-V medium (Thermo Fishers) supplemented with 10% fetal calf serum, 300 IU/ml IL2 and 50 ng/ml OKT3 (MuromonAB-CD3) for two days.\nCPP/CAS9 complexes were formed by mixing the CAS9 mRNA (0.5 μg) with CPP at a 20:1 molar ratio of CPP:CAS9 mRNA and incubating for 30 min at 37° C. prior to cell transfection. CPP/CAS9-expressing plasmid complexes were formed by mixing the CAS9-expressing plasmid (Addgene MLM3639-Plasmid #42252) (0.5 μg) with CPP at a 20:1 molar ratio of CPP:plasmid and incubating for 30 min at 37° C. prior to cell transfection.\nCells were transfected according to the protocol for suspension cells described in Example 13a. RNAiMAX and lipofectamine 2000 lipid-based delivery methods (Invitrogen Thermo Fisher France) were used as controls, and transfections were performed following the manufacturer's instructions. CAS9 protein expression level was analyzed at multiple time points over a period of 10 days as determine by ELISA on protein extracts using antibodies against CRISPR/Cas9 obtained from Diagenode (Diagenode cat. No. C15200223) and ABCAM (clone 7A9-ab191468)."}, "[8]": {"test": "Particle size, polydispersity and zeta potential with different cargoes (Zetasizer NANO ZS P)", "type": "physicochemical", "settings": "20:1", "experimental": "The CPP/CAS9-protein, CPP/CAS9-protein/sgRNA, CPP/CAS9-mRNA, CPP/CAS-mRNA/sgRNA particles were characterized; the mean size, polydispersity, and zeta potential were measured with a Zetasizer NANO ZS P apparatus (Malvern Ltd).\nThe mean size and the polydispersity of the CCP/cargo complexes were determined at 25° C. for 5 min per measurement and zeta potential was measured with a Zetasizer NANO ZS P apparatus (Malvern Ltd)."}, "Swiss mice": {"system": "Swiss mice", "settings": "CAS9 protein 5 μg/VEPEP-3a 20:1; single i.v.; 12-72 hr", "experimental": "Free CAS9 protein in physiological buffer was injected as a negative control, and administration of LPS was used as a positive control for cytokine activation. […] Serum cytokine levels were measured using The Cytokine Mouse Magnetic 20-Plex Panel from Invritrogen (LMC 0006M)."}, "[9]": {"settings": "Donor 1, CAS9/sgRNA 2.5 μg/5 μg"}, "[10]": {"settings": "Donor 2, CAS9/sgRNA 2.5 μg/5 μg"}},
  "note": "Several values for one entry are separate records, joined by “and”; a condition that tells them apart may be missing. Equal entries are not always repeated.",
  "data": [
    {"smiles": "N=C(N)NCCC[C@H](NC(=O)[C@H](CCCNC(=N)N)NC(=O)[C@H](CCCCN)NC(=O)[C@H](CCCNC(=N)N)NC(=O)[C@@H]1CCCN1C(=O)[C@H](Cc1c[nH]c2ccccc12)NC(=O)[C@H](CCC(=O)O)NC(=O)[C@H](CCCNC(=N)N)NC(=O)[C@H](Cc1ccccc1)NC(=O)[C@H](Cc1c[nH]c2ccccc12)NC(=O)[C@H](CCCNC(=N)N)NC(=O)[C@H](CCC(=O)O)NC(=O)[C@H](Cc1ccccc1)NC(=O)[C@H](Cc1c[nH]c2ccccc12)NC(=O)[C@H](CCCCN)NC(=O)CCN)C(=O)O", "note": "[VEPEP-3a]", "values": [
      {"measurement": "Mean indel Frequency ± s.e.m", "setting": "[1]; JURKAT, CAS9/sgRNA 2.5 μg/5 μg", "value": "72 ± 5", "unit": "%"},
      {"measurement": "Mean indel Frequency ± s.e.m", "setting": "[1]; JURKAT, CAS9/sgRNA 5 μg/10 μg", "value": "78% and 78 ± 7%"},
      {"measurement": "Mean indel Frequency ± s.e.m", "setting": "[1]; K562, CAS9/sgRNA 2.5 μg/5 μg", "value": "71 ± 6", "unit": "%"},
      {"measurement": "Mean indel Frequency ± s.e.m", "setting": "[1]; K562, CAS9/sgRNA 5 μg/10 μg", "value": "75% and 75 ± 6%"},
      {"measurement": "Mean indel Frequency ± s.e.m", "setting": "[2]; [9]", "value": "62 ± 5", "unit": "%"},
      {"measurement": "Mean indel Frequency ± s.e.m", "setting": "[2]; Donor 1, CAS9/sgRNA 5 μg/10 μg", "value": "65 ± 5", "unit": "%"},
      {"measurement": "Mean indel Frequency ± s.e.m", "setting": "[2]; [10]", "value": "67 ± 8", "unit": "%"},
      {"measurement": "Mean indel Frequency ± s.e.m", "setting": "[2]; Donor 2, CAS9/sgRNA 5 μg/10 μg", "value": "70 ± 5", "unit": "%"},
      {"measurement": "mean indel frequency of hPD1 gene", "setting": "[2]; T cells from the two donors, 5 μg/10 μg CAS9/gRNA", "value": 66, "unit": "%"},
      {"measurement": "Mean indel Frequency ± s.e.m", "setting": "[3]; [9]", "value": "51 ± 5", "unit": "%"},
      {"measurement": "Mean indel Frequency ± s.e.m", "setting": "[3]; Donor 1, CAS9/sgRNA 5 μg/10 μg", "value": "57 ± 2", "unit": "%"},
      {"measurement": "Mean indel Frequency ± s.e.m", "setting": "[3]; [10]", "value": "53 ± 5", "unit": "%"},
      {"measurement": "Mean indel Frequency ± s.e.m", "setting": "[3]; Donor 2, CAS9/sgRNA 5 μg/10 μg", "value": "58 ± 8", "unit": "%"},
      {"measurement": "mean indel frequency", "setting": "[3]; 2.5 μg/5 μg CAS9/gRNA", "value": "approximately 50%"},
      {"measurement": "mean indel frequency", "setting": "[3]; 5 μg/10 μg CAS9/gRNA", "value": "~57", "unit": "%"},
      {"measurement": "toxicity", "setting": "JURKAT and K562 cells", "value": "no toxicity"},
      {"measurement": "mean indel frequency", "setting": "[4]; differentiated C2C12", "value": 73, "unit": "%"},
      {"measurement": "mean indel frequency", "setting": "[4]; undifferentiated C2C12, 5 μg/10 μg CAS9/gRNA, 20:1", "value": 81, "unit": "%"},
      {"measurement": "editing of ü-Catenin and HPRT genes", "setting": "[5]", "value": "robust editing"},
      {"measurement": "ELISA signal for CAS9 protein expression", "setting": "[6]", "value": "little to no increase"},
      {"measurement": "ELISA signal for CAS9 protein expression", "setting": "[7]", "value": "little to no increase"},
      {"measurement": "ELISA signal for CAS9 protein expression", "setting": "primary human T cells; CAS9-expressing plasmid 0.5 μg", "value": "little to no CAS9 expression"},
      {"measurement": "ELISA signal for CAS9 protein expression", "setting": "primary human T cells; CAS9 mRNA 0.5 μg", "value": "little to no CAS9 expression"},
      {"measurement": "formation of stable nanoparticles", "setting": "[8]; with CAS9-protein and CAS9-protein/gRNA complex", "value": "able to form stable nanoparticles"},
      {"measurement": "Mean diameter", "setting": "[8]; with CAS9-protein and CAS9-protein/gRNA", "value": "about 60 nm"},
      {"measurement": "average viability", "setting": "Primary T cells", "value": "≥ 80", "unit": "%"},
      {"measurement": "non-specific cytokine induction", "setting": "Swiss mice", "value": "little to no impact"}
    ]}
  ]
}
